{
  "source": "ChEMBL document CHEMBL5518224",
  "about": "“Rational Design of PARP1/c-Met Dual Inhibitors for Overcoming PARP1 Inhibitor Resistance Induced by c-Met Overexpression” (J Med Chem, 2024)",
  "key": {"MDA-MB-231 [1]": {"tested_on": "MDA-MB-231", "assay": "Antiproliferative activity against human MDA-MB-231 cells harboring wild type BRCA and c-Met amplification assessed as inhibition of cell growth incubated for 7 days by MTT assay", "assay_type": "functional, cell-based", "details": "MDA-MB-231, 168 h"}, "[2]": {"assay": "Cytotoxicity against NRK cells assessed as inhibition of cell growth incubated for 72 hrs by MTT assay", "assay_type": "toxicity, cell-based", "details": "rat"}, "[3]": {"target": "Poly [ADP-ribose] polymerase 1 (Homo sapiens, UniProt P09874)", "sequence (P09874 whole entry)": "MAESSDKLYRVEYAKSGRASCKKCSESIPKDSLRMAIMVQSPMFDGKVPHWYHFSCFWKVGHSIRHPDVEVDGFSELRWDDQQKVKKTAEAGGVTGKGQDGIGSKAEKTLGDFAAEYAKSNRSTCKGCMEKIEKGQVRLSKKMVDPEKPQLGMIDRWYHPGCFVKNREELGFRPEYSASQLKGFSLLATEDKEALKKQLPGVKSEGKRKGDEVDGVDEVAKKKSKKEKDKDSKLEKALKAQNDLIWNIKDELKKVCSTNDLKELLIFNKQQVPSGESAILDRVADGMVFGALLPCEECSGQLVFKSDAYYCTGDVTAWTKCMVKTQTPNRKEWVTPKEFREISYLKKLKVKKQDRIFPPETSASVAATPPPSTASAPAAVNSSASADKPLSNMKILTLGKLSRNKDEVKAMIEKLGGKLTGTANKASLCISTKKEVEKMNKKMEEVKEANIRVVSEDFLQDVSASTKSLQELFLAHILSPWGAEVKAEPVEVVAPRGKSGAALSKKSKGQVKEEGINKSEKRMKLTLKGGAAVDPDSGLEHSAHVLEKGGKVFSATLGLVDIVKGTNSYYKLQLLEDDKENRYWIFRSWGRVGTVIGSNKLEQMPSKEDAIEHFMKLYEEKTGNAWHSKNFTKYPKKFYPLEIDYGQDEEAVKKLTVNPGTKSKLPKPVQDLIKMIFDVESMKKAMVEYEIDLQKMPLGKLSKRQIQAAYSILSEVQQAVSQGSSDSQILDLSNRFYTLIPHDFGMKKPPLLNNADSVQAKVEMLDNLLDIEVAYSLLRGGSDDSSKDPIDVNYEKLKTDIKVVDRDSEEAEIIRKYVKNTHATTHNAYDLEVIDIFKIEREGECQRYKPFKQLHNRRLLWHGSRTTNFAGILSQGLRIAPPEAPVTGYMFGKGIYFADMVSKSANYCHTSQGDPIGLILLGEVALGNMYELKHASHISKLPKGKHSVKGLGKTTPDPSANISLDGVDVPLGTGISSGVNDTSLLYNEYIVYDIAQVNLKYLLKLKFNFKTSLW", "assay": "Inhibition of PARP1 (unknown origin) using histone as substrate incubated for 45 mins by absorbance based analysis"}, "MDA-MB-231 [4]": {"tested_on": "MDA-MB-231", "assay": "Induction of apoptosis in human MDA-MB-231 cells assessed as live cells at 0.5 uM incubated for 4 days by Annexin V-FITC/PI staining based flow cytometry analysis (reference value: 94.6%)", "assay_type": "functional", "details": "time 4 day"}, "MDA-MB-468 [5]": {"tested_on": "MDA-MB-468", "assay": "Potency index, ratio of olaparib IC50 to test compound IC50 for antiproliferative activity against human MDA-MB-468 cells harboring wild type BRCA1/2, HR-proficient and non-c-Met amplification assessed as inhibition of cell growth incubated for 7 days by MTT assay", "assay_type": "functional", "details": "time 7 day"}, "MDA-MB-231 [6]": {"tested_on": "MDA-MB-231", "assay": "Potency index, ratio of olaparib IC50 to test compound IC50 for antiproliferative activity against human MDA-MB-231 cells harboring wild type BRCA and c-Met amplification assessed as inhibition of cell growth incubated for 7 days by MTT assay", "assay_type": "functional", "details": "time 7 day"}, "[7]": {"tested_on": "Olaparib-resistant HCT116", "assay": "Potency index, ratio of olaparib IC50 to test compound IC50 for antiproliferative activity against human Olaparib-resistant HCT116 cells harboring BRCA2 mutant assessed as inhibition of cell growth incubated for 7 days by MTT assay", "assay_type": "functional", "details": "time 7 day"}, "[8]": {"tested_on": "Olaparib-resistant HCT116", "assay": "Antiproliferative activity against human Olaparib-resistant HCT116 cells harboring BRCA2 mutant assessed as inhibition of cell growth incubated for 7 days by MTT assay", "assay_type": "functional, cell-based", "details": "Olaparib-resistant HCT116, 168 h"}, "MDA-MB-468 [9]": {"tested_on": "MDA-MB-468", "assay": "Antiproliferative activity against human MDA-MB-468 cells harboring wild type BRCA1/2, HR-proficient and non-c-Met amplification assessed as inhibition of cell growth incubated for 7 days by MTT assay", "assay_type": "functional, cell-based", "details": "MDA-MB-468, 168 h"}, "MDA-MB-231 [10]": {"tested_on": "MDA-MB-231", "assay": "Induction of apoptosis in human MDA-MB-231 cells assessed as live cells at 1 uM incubated for 4 days by Annexin V-FITC/PI staining based flow cytometry analysis (reference value: 94.6%)", "assay_type": "functional", "details": "time 4 day"}, "[11]": {"assay": "Antiproliferative activity against human Olaparib-resistant HCC1937 cells harboring BRCA1 mutant and PARP1 overexpression assessed as inhibition of cell growth incubated for 7 days by MTT assay", "assay_type": "functional, cell-based", "details": "Olaparib-resistant HCC1937, 168 h"}, "MDA-MB-468 [12]": {"tested_on": "MDA-MB-468", "assay": "Potency index, ratio of crizotinib IC50 to test compound IC50 for antiproliferative activity against human MDA-MB-468 cells harboring wild type BRCA1/2, HR-proficient and non-c-Met amplification assessed as inhibition of cell growth incubated for 7 days by MTT assay", "assay_type": "functional", "details": "time 7 day"}, "MDA-MB-231 [13]": {"tested_on": "MDA-MB-231", "assay": "Induction of apoptosis in human MDA-MB-231 cells assessed as early apoptotic cells at 1 uM incubated for 4 days by Annexin V-FITC/PI staining based flow cytometry analysis (reference value: 3.88%)", "assay_type": "functional", "details": "time 4 day"}, "[14]": {"target": "Hepatocyte growth factor receptor (Homo sapiens, UniProt P08581)", "sequence (P08581 whole entry)": "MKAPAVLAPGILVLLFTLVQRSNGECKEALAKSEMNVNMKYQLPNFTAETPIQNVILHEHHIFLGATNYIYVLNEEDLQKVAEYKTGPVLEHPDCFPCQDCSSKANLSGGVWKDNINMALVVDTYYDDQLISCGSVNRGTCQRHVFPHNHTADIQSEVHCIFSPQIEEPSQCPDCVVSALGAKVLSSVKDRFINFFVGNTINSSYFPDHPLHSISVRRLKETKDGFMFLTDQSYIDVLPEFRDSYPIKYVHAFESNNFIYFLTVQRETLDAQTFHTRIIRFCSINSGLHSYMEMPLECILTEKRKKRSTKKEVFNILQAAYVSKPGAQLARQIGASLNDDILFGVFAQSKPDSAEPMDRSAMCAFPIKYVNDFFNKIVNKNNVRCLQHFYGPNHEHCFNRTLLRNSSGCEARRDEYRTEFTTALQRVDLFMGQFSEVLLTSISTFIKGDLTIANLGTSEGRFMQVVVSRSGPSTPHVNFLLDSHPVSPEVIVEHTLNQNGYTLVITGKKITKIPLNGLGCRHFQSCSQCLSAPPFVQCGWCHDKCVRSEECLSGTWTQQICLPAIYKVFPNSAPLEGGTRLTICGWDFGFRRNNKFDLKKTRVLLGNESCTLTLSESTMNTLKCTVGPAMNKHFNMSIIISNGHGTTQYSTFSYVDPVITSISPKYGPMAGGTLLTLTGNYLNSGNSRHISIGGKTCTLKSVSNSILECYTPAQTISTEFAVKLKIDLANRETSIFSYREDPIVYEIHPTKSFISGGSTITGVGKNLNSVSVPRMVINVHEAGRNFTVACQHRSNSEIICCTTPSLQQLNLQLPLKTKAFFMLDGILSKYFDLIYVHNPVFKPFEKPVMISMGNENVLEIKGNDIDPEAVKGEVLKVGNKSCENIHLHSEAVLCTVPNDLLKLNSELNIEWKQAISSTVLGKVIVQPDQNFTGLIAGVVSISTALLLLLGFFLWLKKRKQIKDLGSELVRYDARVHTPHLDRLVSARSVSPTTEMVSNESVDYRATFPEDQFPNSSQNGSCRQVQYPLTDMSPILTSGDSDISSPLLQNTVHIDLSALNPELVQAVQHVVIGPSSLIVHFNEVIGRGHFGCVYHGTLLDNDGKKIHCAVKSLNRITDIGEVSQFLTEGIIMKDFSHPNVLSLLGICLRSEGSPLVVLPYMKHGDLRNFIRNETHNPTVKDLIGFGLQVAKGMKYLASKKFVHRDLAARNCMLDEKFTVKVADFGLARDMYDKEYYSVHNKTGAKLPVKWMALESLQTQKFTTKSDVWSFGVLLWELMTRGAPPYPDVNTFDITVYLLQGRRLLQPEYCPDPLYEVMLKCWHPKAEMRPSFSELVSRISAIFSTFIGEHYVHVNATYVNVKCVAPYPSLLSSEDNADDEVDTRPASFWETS", "assay": "Inhibition of c-Met (unknown origin) by HTRF method"}, "[15]": {"assay": "Potency index, ratio of olaparib IC50 to test compound IC50 for antiproliferative activity against human Olaparib-resistant HCC1937 cells harboring BRCA1 mutant and PARP1 overexpression assessed as inhibition of cell growth incubated for 7 days by MTT assay", "assay_type": "functional", "details": "time 7 day"}, "MDA-MB-231 [16]": {"tested_on": "MDA-MB-231", "assay": "Induction of apoptosis in human MDA-MB-231 cells assessed as early apoptotic cells at 0.5 uM incubated for 4 days by Annexin V-FITC/PI staining based flow cytometry analysis (reference value: 3.88%)", "assay_type": "functional", "details": "time 4 day"}, "MDA-MB-231 [17]": {"tested_on": "MDA-MB-231", "assay": "Induction of apoptosis in human MDA-MB-231 cells assessed as late apoptotic cells at 1 uM incubated for 4 days by Annexin V-FITC/PI staining based flow cytometry analysis (reference value: 0.81%)", "assay_type": "functional", "details": "time 4 day"}, "MDA-MB-231 [18]": {"tested_on": "MDA-MB-231", "assay": "Induction of apoptosis in human MDA-MB-231 cells assessed as dead cells at 0.5 uM incubated for 4 days by Annexin V-FITC/PI staining based flow cytometry analysis (reference value: 0.72%)", "assay_type": "functional", "details": "time 4 day"}, "MDA-MB-231 [19]": {"tested_on": "MDA-MB-231", "assay": "Induction of apoptosis in human MDA-MB-231 cells assessed as dead cells at 1 uM incubated for 4 days by Annexin V-FITC/PI staining based flow cytometry analysis (reference value: 0.72%)", "assay_type": "functional", "details": "time 4 day"}, "MDA-MB-231 [20]": {"tested_on": "MDA-MB-231", "assay": "Induction of apoptosis in human MDA-MB-231 cells assessed as late apoptotic cells at 0.5 uM incubated for 4 days by Annexin V-FITC/PI staining based flow cytometry analysis (reference value: 0.81%)", "assay_type": "functional", "details": "time 4 day"}},
  "data": [
    {"smiles": "O=C(c1cc(Cc2n[nH]c(=O)c3ccccc23)ccc1F)N1CCN(c2ccc3c(OCCn4nc(-c5cccnc5)ccc4=O)ccnc3c2)CC1", "values": [
      {"measurement": "IC50", "setting": "MDA-MB-231 [1]", "result": 45, "unit": "nM"},
      {"measurement": "IC50 at 72 h", "setting": "[2]", "result": 8730, "unit": "nM"},
      {"measurement": "IC50", "setting": "[3]", "result": 3.3, "unit": "nM"},
      {"measurement": "Activity", "setting": "MDA-MB-231 [4]", "result": 78.5, "unit": "%"},
      {"measurement": "Ratio IC50", "setting": "MDA-MB-468 [5]", "result": 54},
      {"measurement": "Ratio IC50", "setting": "MDA-MB-231 [6]", "result": 680},
      {"measurement": "Ratio IC50", "setting": "[7]", "result": 10},
      {"measurement": "IC50", "setting": "[8]", "result": 5330, "unit": "nM"},
      {"measurement": "IC50", "setting": "MDA-MB-468 [9]", "result": 170, "unit": "nM"},
      {"measurement": "Activity", "setting": "MDA-MB-231 [10]", "result": 67.2, "unit": "%"},
      {"measurement": "IC50", "setting": "[11]", "result": 4570, "unit": "nM"},
      {"measurement": "Ratio IC50", "setting": "MDA-MB-468 [12]", "result": 26},
      {"measurement": "Activity", "setting": "MDA-MB-231 [13]", "result": 15.8, "unit": "%"},
      {"measurement": "IC50", "setting": "[14]", "result": 32.2, "unit": "nM"},
      {"measurement": "Ratio IC50", "setting": "[15]", "result": 4},
      {"measurement": "Activity", "setting": "MDA-MB-231 [16]", "result": 8.46, "unit": "%"},
      {"measurement": "Activity", "setting": "MDA-MB-231 [17]", "result": 10.6, "unit": "%"},
      {"measurement": "Activity", "setting": "MDA-MB-231 [18]", "result": 5, "unit": "%"},
      {"measurement": "Activity", "setting": "MDA-MB-231 [19]", "result": 6.37, "unit": "%"},
      {"measurement": "Activity", "setting": "MDA-MB-231 [20]", "result": 8.09, "unit": "%"}
    ]}
  ]
}
